Structures are written as SMILES.

One series concerns the target T1, 11 β-HSD type 2 (Rattus norvegicus, UniProt P50233).
T1 construct: Both the kidneys and livers were homogenised on ice in PBS- sucrose buffer; tissue Harlan Olac, Bicester, Oxon, UK (rats); host or cells: rat kidney homogenate supernatant (Wistar rat)
T1 sequence (P50233 1-400): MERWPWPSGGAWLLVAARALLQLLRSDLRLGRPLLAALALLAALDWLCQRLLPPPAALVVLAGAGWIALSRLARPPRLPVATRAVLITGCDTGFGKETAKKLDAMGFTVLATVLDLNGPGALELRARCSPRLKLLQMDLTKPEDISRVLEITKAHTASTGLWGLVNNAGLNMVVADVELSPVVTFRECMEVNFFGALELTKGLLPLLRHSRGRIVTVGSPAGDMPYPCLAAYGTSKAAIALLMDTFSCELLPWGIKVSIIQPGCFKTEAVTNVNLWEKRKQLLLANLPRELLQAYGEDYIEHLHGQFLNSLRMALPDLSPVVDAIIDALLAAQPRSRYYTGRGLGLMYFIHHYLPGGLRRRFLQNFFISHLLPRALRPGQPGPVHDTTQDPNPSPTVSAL
As to the kind of experiment: biochemical. The settings on record: rat kidney cytosol 150 μL, 60 min, 37° C., cortisol (F) to cortisone (E), vs control without inhibitor, means n=2; for inhibition at 10 µM: read-out: % […]→E ± SD, inhibitor 10 μM, read-out: % INHIBITION F→E ± SD. As for the experimental part: Enzymes—Rat livers and rat kidneys were obtained from normal Wistar rats (Harlan Olac, Bicester, Oxon,UK). Both the kidneys and livers were homogenised on ice in PBS- sucrose buffer (1 g/10 ml) using an Ultra-Turrax. After the livers and kidneys were homogenised the homogenate was centrifuged for five minutes at 4000 rpm. The supernatant obtained was removed and stored in glass vials at −20° C. The amount of protein per μl of rat liver and kidney cytosol was determined using the Bradford method.
The same procedure was used for the 11 β-HSD type 2 assay, the conversion F to E, to determine the amount of rat kidney to be used and the incubation time.
In these assays the influence of different inhibitors on the 11 β-HSD activity both in reductive (type 1) and oxidative (type 2) directions were assessed. In the reductive direction E is the substrate and F the product and visa versa in the case of oxidation. The method described here is for the oxidative direction.
The substrate solution contained about 50,000 cpm/ml ^3H—F in PBS-sucrose and 0.5 pM F. 1 ml of the substrate solution was added to each tube, the inhibitors were also added, at a 10 μM concentration, to each tube except to the “control” and “blank” tubes. 150 μL was added to all tubes except to the blanks, this was done to correct for the amount of ^3H[…]. The tubes were incubated for 60 minutes in a mechanically shaken water bath at 37° C. […] After incubation 50 μL of recovery was added to correct for the losses made in the next steps, containing 5000 cpm/50 μL of ^14C-E and 50 μg/50 μL of unlabelled E (to visualise the spot on the TLC-plate). The aqueous mixture was then extracted with 4 ml of ether (2×30 sec cycle, vortex mix). After freezing the aqueous phase, the ether (upper) layer was decanted into smaller tubes and evaporated at 45° C. until completely dry. The residue was then re-dissolved in 6 drops of ether and transferred to a TLC-plate. The TLC-plate was developed in chloroform:methanol (9:1 v/v) solvent system, the TLC-plate ran for about 90 minutes until the solvent front had moved about 18 cm. The position of the product E was visualised under UV-light and cut out from the TLC-plate and put into scintillation vials. Radioactivity was eluted over 5 minutes with 0.5 ml methanol. 0.5 ml of PBS- sucrose and 10 ml of Ecoscint were then added and vortex mixed before counting in the scintillation counter. Before counting the samples, two total activity vials were prepared. These contained 0.5 ml of the substrate solution, 50 μL of the recovery, 0.5 ml of methanol and 10 ml of Ecoscint. These two total activity vials were needed to determine the amount of ^14C-E and ^3H—F added in the beginning to make the calculations.
To look at the percentage of inhibition four different concentrations, 1, 5, 10 and 20 μM, were used. The method for both the rat liver, type 1 the reductive, and rat kidney, type 2 the oxidative, stay the same throughout the entire experiment.
In this experiment the influence of different inhibitors on the conversion E to F and F to E was determined. The reason why inhibition in both directions was examined was to make a comparison between the inhibitors and which type of 11 β-HSD they inhibit more. Thirty-two compounds were screened for their ability to inhibit 11 β-HSD type 1 (E to F) and type 2 (F to E). […] The percent of inhibition was calculated as the percentage of decrease in radio labelled ^3H-E and ^3H—F of product formed, compared with the control activity (the tubes without an inhibitor in it). All the results calculated are means, n=2.

In another series the target is T2, 11 β-HSD type 1 (Rattus norvegicus, UniProt P16232).
T2 construct: Both the kidneys and livers were homogenised on ice in PBS- sucrose buffer; tissue Harlan Olac, Bicester, Oxon, UK (rats); host or cells: rat liver homogenate supernatant (Wistar rat)
The series is described as follows: biochemical. The following applies: rat liver cytosol 25 μL, 90 min, 37° C., cortisone (E) to cortisol (F), vs control without inhibitor, means n=2; for inhibition at 10 µM: read-out: % […]→F ± SD, inhibitor 10 μM, read-out: % INHIBITION E→F ± SD. It counts as biochemical.

T2 sequence (P16232 whole entry): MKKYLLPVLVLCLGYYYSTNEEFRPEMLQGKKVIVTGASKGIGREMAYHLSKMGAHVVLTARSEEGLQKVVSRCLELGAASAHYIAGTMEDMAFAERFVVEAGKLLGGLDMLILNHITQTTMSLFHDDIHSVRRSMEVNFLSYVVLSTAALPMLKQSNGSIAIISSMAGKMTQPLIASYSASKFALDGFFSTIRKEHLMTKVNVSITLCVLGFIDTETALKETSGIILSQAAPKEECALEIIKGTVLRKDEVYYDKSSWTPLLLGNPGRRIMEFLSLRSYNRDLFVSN

Broadly, the melting point is the temperature of the solid-liquid transition. In the case of `CC(O)C1CCC2C3CCC4=C[C@@H](O)CC[C@]4(C)C3[C@H](OCc3ccccc3)C[C@]12C` (stereo in doubt) [STX-126, 11α-benzyloxy-3,20-dihydroxyprogesterone], the melting point fell in the range of 117 to 118 °C. Also, the inhibition at 10 µM on 11 β-HSD type 2 stood at 13.5 ± 2.97%. Further, the inhibition at 10 µM at 11 β-HSD type 1 was determined as 33.8 ± 0.354%.
The compound `CC(=O)C1CCC2C3CCC4=CC(=O)CC[C@]4(C)C3[C@H](OCc3ccccc3)C[C@]12C` (stereo partly drawn) [STX 185, 11α-Benzyloxyprogesterone] returned a melting point of 207 to 210 °C. Moreover, at 11 β-HSD type 2, the inhibition at 10 µM came out at 18.9 ± 4.2%. The “% INHIBITION E→F ± SD” value at 11 β-HSD type 1 (inhibitor 10 μM, 10 µM) amounted to 16.1 ± 10.4%. In addition, the inhibition at 10 µM on 11 β-HSD type 1 was 14%.
For the compound `CC1(C)C2CC[C@]3(C)C(C(=O)C=C4[C@@H]5C[C@@](C)(C(=O)OCC6CCCCC6)CC[C@]5(C)CC[C@]43C)[C@@]2(C)CC[C@@H]1O` (stereo partly drawn) [STX198, 3β-hydroxy-11-oxo-18β-glycyrrhetinic acid cyclohexylmethyl ester], the melting point lay in the range of 98 to 99 °C. The “% INHIBITION F→E ± SD” value at 11 β-HSD type 2 (inhibitor 10 μM, 10 µM) was 33.1 ± 1.838%. The inhibition at 10 µM at 11 β-HSD type 2 was 33%. The inhibition at 10 µM at 11 β-HSD type 1 worked out at 52.3 ± 1.25%.
Consider `CCOC(=O)[C@@]1(C)CC[C@]2(C)CC[C@]3(C)C(=CC(=O)C4[C@@]5(C)CC[C@H](O)C(C)(C)C5CC[C@]43C)[C@@H]2C1` (stereo partly drawn) [STX196, 3β-hydroxy-11-oxo-18β-glycyrrhetinic acid ethyl ester], for which the melting point is 93 to 94 °C. Also, the inhibition at 10 µM at 11 β-HSD type 2 is 97.5 ± 1.37%. Also, the inhibition at 10 µM at 11 β-HSD type 1 was found to be 80.7 ± 2.14%.
The matching figures for `CO[C@@H]1C[C@]2(C)C(C(C)=O)CCC2C2CCC3=CC(=O)CC[C@]3(C)C21` (stereo partly drawn) [STX193, 11α-Methoxyprogesterone]: 164 to 165 °C, 68.2 ± 3.68% and 48.1 ± 0.313%.
Take `CC(=O)O[C@H]1CC[C@@]2(C)C(CC[C@]3(C)C2CC=C2[C@@H]4C[C@@](C)(C(=O)OCc5ccccc5)CC[C@]4(C)CC[C@]23C)C1(C)C` (stereo partly drawn) [STX 354, 11-Deoxo-3β-aectoxy-18β-glycyrrhetinic acid benzyl ester]: the melting point lay within 207 to 208 °C. Moreover, at 11 β-HSD type 2, the inhibition at 10 µM turned out to be 13.6 ± 1.42%. The inhibition at 10 µM on 11 β-HSD type 1 is -1.18 ± 9.22%.
The matching figures for `CC(=O)C1CCC2C3CCC4=CC(=O)CC[C@]4(C)C3C(=O)C[C@]12C` (stereo partly drawn) [STX124, 11-Oxo-progesterone]: 182 to 183 °C, 92.6 ± 2.1% and 100 ± 6.8%.
The matching figures for `CC(O)C1CCC2C3CCC4=C[C@@H](O)CC[C@]4(C)C3[C@H](O)C[C@]12C` (stereo in doubt) [STX125, 3,11,20-Trihydroxyproqesterone]: 122 to 125 °C, 72.2 ± 4.3% and 85.1 ± 3.4%.
For `CC1(C)C2CC[C@]3(C)C(CC=C4[C@@H]5C[C@@](C)(C(=O)OCC6CCCCC6)CC[C@]5(C)CC[C@]43C)[C@@]2(C)CC[C@@H]1O` (stereo partly drawn), the melting point was 133 to 134 °C.
